In ChEMBL document CHEMBL5215010, “Dothideomins A-D, Antibacterial Polycyclic Bisanthraquinones from the Endophytic Fungus Dothideomycetes sp. BMC-101” (2022):
Values after ≈ are worked out from the molar mass of the structure shown.

Legend:
Assay type in all cases: functional
Staphylococcus aureus = assay: Antibacterial activity against Staphylococcus aureus assessed as bacterial growth inhibition by CLSI protocol based broth microdilution assay
Bacillus subtilis = assay: Antibacterial activity against Bacillus subtilis assessed as bacterial growth inhibition by CLSI protocol based broth microdilution assay
Mycolicibacterium phlei = assay: Antibacterial activity against Mycobacterium phlei assessed as bacterial growth inhibition by CLSI protocol based broth microdilution assay
[1] = tested on: Staphylococcus epidermidis; assay: Antibacterial activity against Staphylococcus epidermidis assessed as bacterial growth inhibition by CLSI protocol based broth microdilution assay

Row | Structure (SMILES) | MIC (Staphylococcus aureus) [µg/mL] | MIC (Bacillus subtilis) [µg/mL] | MIC (Mycolicibacterium phlei) [µg/mL] | MIC [1] [µg/mL]
1 | Cc1cc(O)c2c(c1)C(=O)[C@]13C[C@H](O)C4C1[C@@H](O)[C@H](C(O)=C3C2=O)[C@@]12O[C@@]41C(=O)c1cc(C)cc(O)c1[C@H]2O (stereo not given in full) | 6.5 (≈ 12.2 µM) | 6.5 (≈ 12.2 µM) | 6.5 (≈ 12.2 µM) | 3.3 (≈ 6.2 µM)
2 | O=C(N[C@H](CO)[C@H](O)c1ccc([N+](=O)[O-])cc1)C(Cl)Cl [CHLORAMPHENICOL] | 0.3 (≈ 0.928 µM) | 0.8 (≈ 2.48 µM) | 1.3 (≈ 4.02 µM) | 1.5 (≈ 4.64 µM)

Other lines, results leading:

Row | MIC (Staphylococcus aureus) [µg/mL] | MIC (Bacillus subtilis) [µg/mL] | MIC (Mycolicibacterium phlei) [µg/mL] | MIC [1] [µg/mL] | Structure (SMILES)
3 | 0.4 (≈ 0.781 µM) | 0.4 (≈ 0.781 µM) | 0.4 (≈ 0.781 µM) | 0.4 (≈ 0.781 µM) | Cc1cc(O)c2c(c1)C(=O)C1=C(C2=O)[C@H]2C(O)=C3C(=O)c4c(O)cc(C)cc4C(=O)[C@@]34CC(=O)C1C4[C@H]2O (stereo not given in full)
4 | 0.4 (≈ 0.754 µM) | 0.4 (≈ 0.754 µM) | 0.8 (≈ 1.51 µM) | 0.4 (≈ 0.754 µM) | Cc1cc(O)c2c(c1)C(=O)[C@]13C[C@H](O)C4C1[C@@H](O)[C@H](C(O)=C3C2=O)[C@@]12O[C@@]41C(=O)c1cc(C)cc(O)c1C2=O (stereo not given in full)
5 | 1.6 (≈ 3.11 µM) | 1.6 (≈ 3.11 µM) | 1.6 (≈ 3.11 µM) | 1.6 (≈ 3.11 µM) | Cc1cc(O)c2c(c1)C(=O)C1=C(C2=O)[C@H]2C(O)=C3C(=O)c4c(O)cc(C)cc4C(=O)[C@@]34C[C@H](O)C1C4[C@H]2O (stereo not given in full)
